Five molecules from patent publication US20250302832A1, “PYRAZINE DERIVATIVES AND USES THEREOF” (FOGHORN THERAPEUTICS INC., priority 2022, published 2025) can be followed below.

In one experiment the target is T1, HiBit-BRM fusion protein (Homo sapiens, UniProt P51531).
T1 construct: expressed in transfected cells
The experiment is described as follows: HiBiT-BRM cell-based degradation assay (Nano-Glo HiBiT lytic detection, 24 h). Conditions: HeLa cell line expressing HiBiT-BRM; for DC50: read-out: BRM HiBit Degradation IC50. Summed up: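 Stable HeLa HiBiT-BRM cells treated 24 h with compounds (10-point 3-fold dilutions, 30 μM final top dose, duplicate). HiBiT levels read by Nano-Glo lytic luminescence; % degradation normalised to DMSO (high control) and 2 μM reference BRM/BRG1 degrader (low control).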

The target of experiment [1] is T2, HiBit-BRG1 fusion protein (Homo sapiens, UniProt P51532).
T2 construct: expressed in transfected cells
The experiment is described as follows: HiBiT-BRG1 cell-based degradation assay (Nano-Glo HiBiT lytic detection, 24 h). Conditions: read-out: BRG1 HiBit Degradation Maximum (%). Summed up:
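HeLa cells stably expressing HiBiT-BRG1 and LgBiT, 5000 per well, compound-treated 24 h, equilibrated 15 min at room temperature, then lysed with LgBiT-containing Nano-Glo HiBiT lytic reagent and luminescence read. % degradation normalised between DMSO (high control) and 2 μM reference BRM/BRG1 degrader (low control).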
In general terms: With HiBiT, luminescence reflects the tagged protein that the partner subunit can reach.

The mark [2] stands for this setting: HeLa cell line expressing HiBit-BRG1 and LgBit.

Read-outs that look alike come from different tables or passages of the source. A value given as a limit tells only on which side of the number the result lay.

T2 sequence (P51532 whole entry, the tested form may be a part): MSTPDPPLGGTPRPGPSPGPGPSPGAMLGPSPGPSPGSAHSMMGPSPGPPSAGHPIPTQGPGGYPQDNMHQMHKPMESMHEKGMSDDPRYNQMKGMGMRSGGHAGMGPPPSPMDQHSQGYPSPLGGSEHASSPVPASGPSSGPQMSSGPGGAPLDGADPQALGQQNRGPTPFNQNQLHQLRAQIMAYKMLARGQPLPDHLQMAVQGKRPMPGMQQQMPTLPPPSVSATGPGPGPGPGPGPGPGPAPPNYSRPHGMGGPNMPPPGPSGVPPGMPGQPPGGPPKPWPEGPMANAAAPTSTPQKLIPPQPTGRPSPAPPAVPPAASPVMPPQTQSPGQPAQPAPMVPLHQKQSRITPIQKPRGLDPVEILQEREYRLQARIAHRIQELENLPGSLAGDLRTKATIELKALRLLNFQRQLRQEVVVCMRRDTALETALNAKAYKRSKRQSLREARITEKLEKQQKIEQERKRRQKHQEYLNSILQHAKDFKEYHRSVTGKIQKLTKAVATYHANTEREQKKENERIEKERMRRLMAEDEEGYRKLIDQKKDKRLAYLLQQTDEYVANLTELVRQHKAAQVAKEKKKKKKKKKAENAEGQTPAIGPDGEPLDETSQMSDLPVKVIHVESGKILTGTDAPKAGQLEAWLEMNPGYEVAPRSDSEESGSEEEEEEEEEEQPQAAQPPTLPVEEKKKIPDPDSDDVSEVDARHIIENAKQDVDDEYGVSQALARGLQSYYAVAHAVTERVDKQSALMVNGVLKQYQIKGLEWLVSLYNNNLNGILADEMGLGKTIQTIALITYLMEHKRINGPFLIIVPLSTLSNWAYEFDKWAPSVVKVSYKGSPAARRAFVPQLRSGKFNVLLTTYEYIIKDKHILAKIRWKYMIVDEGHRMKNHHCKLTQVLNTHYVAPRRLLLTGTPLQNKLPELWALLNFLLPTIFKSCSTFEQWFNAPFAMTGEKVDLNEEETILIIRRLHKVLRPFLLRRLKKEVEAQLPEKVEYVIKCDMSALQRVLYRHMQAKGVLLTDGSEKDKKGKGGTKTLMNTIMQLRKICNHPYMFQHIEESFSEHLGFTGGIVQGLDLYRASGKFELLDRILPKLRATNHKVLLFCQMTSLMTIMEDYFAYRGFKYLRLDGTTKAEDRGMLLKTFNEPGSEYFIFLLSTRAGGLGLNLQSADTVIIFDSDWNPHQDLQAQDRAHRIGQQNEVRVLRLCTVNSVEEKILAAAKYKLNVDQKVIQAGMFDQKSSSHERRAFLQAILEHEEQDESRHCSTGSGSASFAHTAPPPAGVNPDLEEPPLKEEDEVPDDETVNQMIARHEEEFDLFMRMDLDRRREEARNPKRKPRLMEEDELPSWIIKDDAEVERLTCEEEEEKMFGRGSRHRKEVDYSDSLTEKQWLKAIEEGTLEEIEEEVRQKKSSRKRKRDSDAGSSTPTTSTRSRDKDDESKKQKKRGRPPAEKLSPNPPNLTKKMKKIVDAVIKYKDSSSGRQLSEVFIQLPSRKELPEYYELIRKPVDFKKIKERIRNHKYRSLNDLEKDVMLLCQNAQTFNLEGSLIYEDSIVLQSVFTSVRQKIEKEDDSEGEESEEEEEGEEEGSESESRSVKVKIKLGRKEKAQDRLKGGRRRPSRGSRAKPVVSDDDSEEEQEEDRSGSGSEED
T1 sequence (P51531 whole entry, the tested form may be a part): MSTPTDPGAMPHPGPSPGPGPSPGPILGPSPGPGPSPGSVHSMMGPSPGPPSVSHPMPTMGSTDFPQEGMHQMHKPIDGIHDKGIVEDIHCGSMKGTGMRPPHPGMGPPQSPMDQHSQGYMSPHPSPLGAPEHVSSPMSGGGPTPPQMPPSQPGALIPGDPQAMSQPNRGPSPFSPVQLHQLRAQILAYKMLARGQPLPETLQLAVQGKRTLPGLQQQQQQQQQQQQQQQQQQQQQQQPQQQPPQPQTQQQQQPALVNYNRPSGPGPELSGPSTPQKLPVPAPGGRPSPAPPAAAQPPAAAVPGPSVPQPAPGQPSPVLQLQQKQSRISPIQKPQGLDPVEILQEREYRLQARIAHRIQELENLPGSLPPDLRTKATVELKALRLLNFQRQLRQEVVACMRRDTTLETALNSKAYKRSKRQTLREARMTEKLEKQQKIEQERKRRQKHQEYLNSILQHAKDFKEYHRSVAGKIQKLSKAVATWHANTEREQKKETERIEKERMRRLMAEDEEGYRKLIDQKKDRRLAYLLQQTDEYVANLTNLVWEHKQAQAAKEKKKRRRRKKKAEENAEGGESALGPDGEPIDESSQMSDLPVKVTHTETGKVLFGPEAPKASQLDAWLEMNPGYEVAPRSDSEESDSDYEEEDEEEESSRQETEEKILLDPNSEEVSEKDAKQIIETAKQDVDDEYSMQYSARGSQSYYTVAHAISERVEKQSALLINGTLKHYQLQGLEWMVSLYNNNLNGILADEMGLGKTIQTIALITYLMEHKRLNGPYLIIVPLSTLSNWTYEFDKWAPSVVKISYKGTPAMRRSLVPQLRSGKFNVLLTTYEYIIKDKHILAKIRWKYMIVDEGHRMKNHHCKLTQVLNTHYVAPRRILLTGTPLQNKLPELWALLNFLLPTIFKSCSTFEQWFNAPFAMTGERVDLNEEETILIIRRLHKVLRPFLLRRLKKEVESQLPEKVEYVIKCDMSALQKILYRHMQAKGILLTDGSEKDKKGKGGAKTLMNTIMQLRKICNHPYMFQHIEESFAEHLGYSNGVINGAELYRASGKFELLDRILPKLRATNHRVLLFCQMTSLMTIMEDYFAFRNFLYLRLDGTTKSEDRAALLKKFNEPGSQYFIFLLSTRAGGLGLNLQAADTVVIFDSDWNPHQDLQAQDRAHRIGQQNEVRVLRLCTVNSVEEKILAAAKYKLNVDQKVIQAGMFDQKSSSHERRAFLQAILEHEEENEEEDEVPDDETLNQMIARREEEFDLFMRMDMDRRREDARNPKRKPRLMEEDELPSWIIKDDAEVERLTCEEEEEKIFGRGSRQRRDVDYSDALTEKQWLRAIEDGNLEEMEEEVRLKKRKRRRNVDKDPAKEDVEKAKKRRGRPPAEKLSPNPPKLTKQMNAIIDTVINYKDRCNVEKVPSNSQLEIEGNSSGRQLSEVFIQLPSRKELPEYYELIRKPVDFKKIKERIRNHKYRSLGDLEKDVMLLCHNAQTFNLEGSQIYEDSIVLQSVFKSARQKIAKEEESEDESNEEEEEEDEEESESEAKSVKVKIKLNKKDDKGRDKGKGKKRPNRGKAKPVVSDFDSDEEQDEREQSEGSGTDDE

`Cc1ncsc1-c1ccc([C@H](C)NC(=O)[C@@H]2C[C@@H](O)CN2C(=O)[C@@H](c2cc(N3CC4(CC(c5cc6nnc(-c7ccccc7O)cc6n5C5(CF)CC5)C4)C3)no2)C(C)C)cc1` [Compound 68, (2S,4R)-1-((R)-2-(3-(6-(5-(1-(fluoromethyl)cyclopropyl)-3-(2-hydroxyphenyl)-5H-pyrrolo[3,2-c]pyridazin-6-yl)-2-azaspiro[3.3]heptan-2-yl)isoxazol-5-yl)-3-methylbutanoyl)-4-hydroxy-N-((S)-1-(4-(4-methylthiazol-5-yl)phenyl)ethyl)pyrrolidine-2-carboxamide]: on HiBit-BRM fusion protein, the “BRM HiBit Degradation Maximum (%)” value is “A (“A” indicates maximum degradation ≥75%)” and the DC50 was under 10 nM. The Dmax in experiment [1] (setting [2]) is under 50%.

`CC[C@H](C)NC(=O)[C@@H]1C[C@@H](O)CN1C(=O)C(c1cc(N2CC3(CC(c4cc5nnc(-c6ccccc6O)cc5n4C4CCC4)C3)C2)no1)C(C)C` (stereo partly drawn) [Compound 51, (2S,4R)-N-((S)-sec-butyl)-1-(2-(3-(6-(5-cyclobutyl-3-(2-hydroxyphenyl)-5H-pyrrolo[3,2-c]pyridazin-6-yl)-2-azaspiro[3.3]heptan-2-yl)isoxazol-5-yl)-3-methylbutanoyl)-4-hydroxypyrrolidine-2-carboxamide]: at HiBit-BRM fusion protein, the “BRM HiBit Degradation Maximum (%)” value was “A (“A” indicates maximum degradation ≥75%)” and the DC50 was over 10 nM. In experiment [1] (setting [2]), the Dmax is under 50%.

For `Cc1ncsc1-c1ccc([C@H](C)NC(=O)[C@@H]2C[C@@H](O)CN2C(=O)[C@@H](c2cc(-c3cnc(N4CC[C@H](c5cc6nnc(-c7ccccc7O)cc6n5C5CC5)C4)nc3)no2)C(C)C)cc1` [Compound 34, (2S,4R)-1-((R)-2-(3-(2-((S)-3-(5-cyclopropyl-3-(2-hydroxyphenyl)-5H-pyrrolo[3,2-c]pyridazin-6-yl)pyrrolidin-1-yl)pyrimidin-5-yl)isoxazol-5-yl)-3-methylbutanoyl)-4-hydroxy-N—((S)-1-(4-(4-methylthiazol-5-yl)phenyl)ethyl)pyrrolidine-2-carboxamide], at HiBit-BRM fusion protein, the “BRM HiBit Degradation Maximum (%)” value is reported as “A (“A” indicates maximum degradation ≥75%)” and the DC50 is under 10 nM. Besides, in experiment [1] (setting [2]), the Dmax is under 50%.

For the molecule `CC(C)C(C(=O)N1C[C@H](O)C[C@H]1C(=O)NC1CCC1)c1cc(N2CC3(CC(c4cc5nnc(-c6ccccc6O)cc5n4C4CCC4)C3)C2)no1` (stereo partly drawn) [Compound 118, (2S,4R)-N-cyclobutyl-1-(2-(3-(6-(5-cyclobutyl-3-(2-hydroxyphenyl)-5H-pyrrolo[3,2-c]pyridazin-6-yl)-2-azaspiro[3.3]heptan-2-yl)isoxazol-5-yl)-3-methylbutanoyl)-4-hydroxypyrrolidine-2-carboxamide], at HiBit-BRM fusion protein, the “BRM HiBit Degradation Maximum (%)” value is “A (“A” indicates maximum degradation ≥75%)” and the DC50 is over 10 nM. For the same molecule, in experiment [1] (setting [2]), the Dmax is under 50%.

With `Cc1ncsc1-c1ccc([C@H](C)NC(=O)[C@@H]2C[C@@H](O)CN2C(=O)[C@H](c2cc(-c3cnc(N4CCC(c5cc6nnc(-c7ccccc7O)cc6n5C)CC4)nc3)no2)C(C)C)cc1` [Compound 22, (2S,4R)-4-hydroxy-1-((S)-2-(3-(2-(4-(3-(2-hydroxyphenyl)-5-methyl-5H-pyrrolo[3,2-c]pyridazin-6-yl)piperidin-1-yl)pyrimidin-5-yl)isoxazol-5-yl)-3-methylbutanoyl)-N—((S)-1-(4-(4-methylthiazol-5-yl)phenyl)ethyl)pyrrolidine-2-carboxamide], at HiBit-BRM fusion protein, the “BRM HiBit Degradation Maximum (%)” value is “B (“B” indicates maximum degradation ≥50%)” and the DC50 was over 100 nM. In addition, the Dmax in experiment [1] (HeLa) was under 50%.
